Here are results for three compounds from patent US4251543A, “2-(p-Prenylphenyl)propionic acid” (priority 1978, dated 1981).

The test system of series [1] is liver weight. Nature of the series: Liver weight per 100 g of the test rat. In kind it is in vivo, rat (male Wistar). The note with it: 100 + 200 mg/Kg, p.o., mean ± S.E. Here is the method: (§1) Anti-inflammatory activity was evaluated by the method of rat paw edema(Winter et al., J. Pharmacol. Exp. Ther., 141, 369(1963)). Six male Wistar strain rats were used in each group and a volume of the each paw was measured three hours after injection of carrageenin.
Immediately after the completion of the test described in Experiment 1, the test compound was orally administered to the test rats in a dose twice the dose administered in Experiment 1, and fasting was continued for 18 hours prior to autopsy and evaluation of gastric lesions and liver weight per 100 g of the test rat. The gastric lesions induced were expressed as incidence(number of rats with gastric lesions/number of the rats) and lesion index(sum of areas damaged). The results are shown in Table 3, wherein the values of lesion index and liver weight are mean ± S.E.

Series [2] has as its system gastric lesions. Nature of the series: Gastric lesions after oral administration. In kind it is in vivo, rat (male Wistar). The note with it: 100 + 200 mg/Kg, p.o.; for lesion index (sum of areas damaged): mean ± S.E. How it is done:
Anti-inflammatory activity was evaluated by the method of rat paw edema(Winter et al., J. Pharmacol. Exp. Ther., 141, 369(1963)). Six male Wistar strain rats were used in each group and a volume of the each paw was measured three hours after injection of carrageenin. […] The gastric lesions induced were expressed as incidence(number of rats with gastric lesions/number of the rats) and lesion index(sum of areas damaged). The results are shown in Table 3, wherein the values of lesion index and liver weight are mean ± S.E.

The nature of series [3]: Changes of body weight, repeated oral administration. In kind it is in vivo, rat (male Wister). As to conditions: for body weight before treatment: before treatment (baseline); for body weight before treatment / body weight after 5 days / body weight after 10 days: mean ± S.E.; for body weight after 5 days / body weight after 10 days: orally. Here is the method: (§2) The test compound was suspended in 0.4% CMC solution in an appropriate concentration, and was administered orally once a day at the definite dose (50, 100 or 200 mg/Kg) in each 10 male Wister rats. Additional 10 control rats were received an equivalent volume of the vehicle. […] In those tables, the values of body weight, red blood cell and hemoglobin are mean ± S.E.

Series [4] deals with acetic acid writhing. Nature of the series: Analgesic activity, acetic acid writhing test. The note with it: p.o. In kind it is in vivo, mouse (male ddY). An excerpt:
Male ddY strain mice in groups of ten each were used for the evaluation of analgesic activity by acetic acid writhing test(Koster et al., Federation Proc., 18, 412(1959)).
Background: An intraperitoneal irritant provokes the stretching counted in writhing tests.

In series [5] the test system is rat paw edema. The experiment in a line: Anti-inflammatory activity, rat paw edema (carrageenin). In kind it is in vivo, rat (male Wistar). As to conditions: p.o., three hours after injection of carrageenin. How it is done:
as §1

Series [6] deals with red blood cell and hemoglobin. The experiment in a line: Hematological findings after 10 days administration. In kind it is in vivo, rat (male Wister). As to conditions: for hemoglobin / red blood cell: p.o., day one after 10 days administration, mean ± S.E.; for effect on hemoglobin count (in words) / effect on red blood cell count (in words): 50, 100 or 200 mg/Kg orally once a day, 10 days. How it is done:
as §2

On to `CC(C)=CCc1ccc(C(C)C(=O)O)cc1` (stereo not shown) [TA-060, 2-[p-(3-methyl-2-butenyl)phenyl]propionic acid], for which, in series [1], the liver weight was 3.56 ± 0.04 g. In series [2] (fasting 18 hours prior to autopsy), the “gastric lesion incidence (number of rats with gastric lesions/number of the rats)” value was 0/12. Moreover, the “lesion index (sum of areas damaged)” value in series [2] is on record as 0 mm^2. Also, the “body weight before treatment” value is 211.5 ± 3.6 gram in series [3] (50 mg/Kg/day group), 210.0 ± 2.5 gram in series [3] (100 mg/Kg/day group) and 211.7 ± 3.1 gram in series [3] (200 mg/Kg/day group). Further, the “body weight after 5 days” value was determined as 224.6 ± 3.6 gram in series [3] (50 mg/Kg/day); 226.4 ± 2.8 gram in series [3] (100 mg/Kg/day); 221.9 ± 4.6 gram in series [3] (200 mg/Kg/day, *p <0.01). The “body weight after 10 days” value in series [3] (50 mg/Kg/day) came to 239.7 ± 3.2 gram; in series [3] (100 mg/Kg/day) it was 238.5 ± 2.3 gram; in series [3] (200 mg/Kg/day, **p <0.001) it was 238.3 ± 5.1 gram. Moreover, the “effect on body weight gain (in words)” value in series [3] (50, 100 or 200 mg/Kg orally once a day, 10 days) is “no effect”. Also, the “inhibition (%)” value in series [4] (50 mg/Kg) stood at 37.3%; in series [4] (100 mg/Kg), 40.0%; in series [4] (200 mg/Kg) it was 62.7%; in series [5] (50 mg/Kg) it was 35.9%; in series [5] (100 mg/Kg), 46.5%; in series [5] (200 mg/Kg), 52.1%. Moreover, the hemoglobin came out at 15.2 ± 0.1 g/dL in series [6] (50 mg/Kg); 15.1 ± 0.2 g/dL in series [6] (100 mg/Kg, ***p <0.001); 15.0 ± 0.2 g/dL in series [6] (200 mg/Kg, ***p <0.001). Also, the red blood cell in series [6] (50 mg/Kg, *p <0.05) is recorded as 864.2 ± 20.2 × 10^4 /mm^3; in series [6] (100 mg/Kg, **p <0.01), 860.8 ± 9.5 × 10^4 /mm^3; in series [6] (200 mg/Kg, **p <0.01) it was 857.9 ± 15.2 × 10^4 /mm^3. Moreover, the “effect on hemoglobin count (in words)” value in series [6] is on record as “no effect”. In addition, in series [6], the “effect on red blood cell count (in words)” value is “no effect”.
In the case of `CC(C)Cc1ccc(C(C)C(=O)O)cc1` (stereo not shown) [ibuprofen, reference compound], the “inhibition (%)” value was 18.6% in series [4] (50 mg/Kg); 37.5% in series [4] (100 mg/Kg); 53.8% in series [4] (200 mg/Kg); 37.9% in series [5] (50 mg/Kg); 49.5% in series [5] (100 mg/Kg); 52.9% in series [5] (200 mg/Kg). Moreover, in series [6], the “effect on hemoglobin count (in words)” value is reported as “significant decrease”. For the same compound, the “effect on red blood cell count (in words)” value in series [6] is “significant decrease”.
As to `CCCCC1C(=O)N(c2ccccc2)N(c2ccccc2)C1=O` [phenylbutazone, reference compound], the liver weight in series [1] is recorded as 4.23 ± 0.09 g. In addition, the “lesion index (sum of areas damaged)” value in series [2] was determined as 4.59 ± 1.35 mm^2.
